Reference: publication PMC10518255, “A first-in-class pan-lysyl oxidase inhibitor impairs stromal remodeling and enhances gemcitabine response and survival in pancreatic cancer” (Nature Cancer, 2023)

Legend:
[1] = biological target: T1, SSAO (Homo sapiens, UniProt Q16853); assay: Substrate turnover by H2O2 release, amplex red coupled fluorometric activity assay (Extended Data Fig. 3a); assay type: biochemical
T1 sequence (Q16853 1-763): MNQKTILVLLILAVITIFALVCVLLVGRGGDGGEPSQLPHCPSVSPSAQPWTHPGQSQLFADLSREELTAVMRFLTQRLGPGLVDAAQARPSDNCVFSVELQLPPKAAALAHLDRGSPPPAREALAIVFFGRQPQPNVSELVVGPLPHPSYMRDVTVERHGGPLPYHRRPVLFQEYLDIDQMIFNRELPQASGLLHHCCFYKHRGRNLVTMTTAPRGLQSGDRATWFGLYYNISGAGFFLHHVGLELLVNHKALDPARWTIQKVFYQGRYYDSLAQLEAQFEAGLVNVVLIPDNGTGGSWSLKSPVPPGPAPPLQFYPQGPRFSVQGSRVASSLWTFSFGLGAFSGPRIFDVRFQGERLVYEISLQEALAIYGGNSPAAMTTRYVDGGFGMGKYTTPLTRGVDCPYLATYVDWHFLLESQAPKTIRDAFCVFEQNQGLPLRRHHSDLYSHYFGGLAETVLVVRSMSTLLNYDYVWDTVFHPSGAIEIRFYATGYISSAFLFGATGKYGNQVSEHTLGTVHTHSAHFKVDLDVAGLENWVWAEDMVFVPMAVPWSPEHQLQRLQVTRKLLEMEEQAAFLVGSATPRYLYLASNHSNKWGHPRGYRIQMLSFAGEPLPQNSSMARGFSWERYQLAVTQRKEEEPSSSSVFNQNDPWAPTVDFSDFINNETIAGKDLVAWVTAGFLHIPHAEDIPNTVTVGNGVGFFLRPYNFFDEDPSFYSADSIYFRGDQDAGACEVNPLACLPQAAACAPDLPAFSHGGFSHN
Description: (§1) Specifically, BAPN is oxidized by diamine oxidase (DAO) and semicarbazide-sensitive amine oxidase (SSAO)/vascular adhesion protein 1 (VAP-1) in the vasculature (Extended Data Fig. 3a), which releases hydrogen […] (H2O2) and aldehyde in humans leading to toxicity.
(§2) Data presented as mean values +/− SD. f. […] Data presented as mean values +/− SD. […] Data presented as mean values +/− SD. […] Data presented as mean values +/− SD. Ordinary one-way ANOVA for multiple comparison test performed. Source data

[2] = biological target: T2, DAO (Homo sapiens, UniProt P19801); assay: as above; assay type: biochemical
T2 sequence (P19801 20-751): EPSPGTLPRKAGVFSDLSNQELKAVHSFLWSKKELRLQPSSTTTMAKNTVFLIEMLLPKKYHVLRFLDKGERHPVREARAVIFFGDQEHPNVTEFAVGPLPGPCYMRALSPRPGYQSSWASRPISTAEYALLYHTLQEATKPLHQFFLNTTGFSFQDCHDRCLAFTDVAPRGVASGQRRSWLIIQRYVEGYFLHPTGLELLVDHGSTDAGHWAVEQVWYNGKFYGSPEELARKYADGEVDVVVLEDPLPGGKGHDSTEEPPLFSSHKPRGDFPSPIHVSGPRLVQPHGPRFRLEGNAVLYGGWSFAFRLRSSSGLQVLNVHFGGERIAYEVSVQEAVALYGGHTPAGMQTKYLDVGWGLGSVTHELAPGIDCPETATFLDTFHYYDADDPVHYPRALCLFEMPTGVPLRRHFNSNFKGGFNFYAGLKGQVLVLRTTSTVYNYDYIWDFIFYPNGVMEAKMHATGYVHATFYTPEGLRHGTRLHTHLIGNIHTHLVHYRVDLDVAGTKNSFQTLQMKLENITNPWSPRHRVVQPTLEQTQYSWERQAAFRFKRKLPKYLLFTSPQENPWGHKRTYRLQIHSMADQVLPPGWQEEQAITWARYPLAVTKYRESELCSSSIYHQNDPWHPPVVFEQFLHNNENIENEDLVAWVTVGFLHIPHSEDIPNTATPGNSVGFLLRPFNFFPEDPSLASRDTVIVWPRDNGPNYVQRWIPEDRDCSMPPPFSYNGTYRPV
Description: as §1, §2

[3] = system: KPC CAF remodeled 3D collagen matrices; assay: Matrix stiffness by unconfined compression testing of organotypic matrices; assay type: cell-based, mouse; details: PXS-5120 100 nM, day 12
Protocol: Fig. 3 PXS-5505 inhibition of CAF remodeling in vitro. a, Quantitative PCR with reverse transcription (qRT–PCR) showing in vitro comparison of KPC CAF relative expression of lysyl oxidase family members compared to KPC CCs from the same model (n = 3 biologically independent samples). Comparisons were determined by 2^–∆∆Ct approach. b, Representative images of 3D organotypic matrix contraction assay at days 2, 6 and 12 in the absence (gray) or presence (pink) of PXS-5505 (30 µM). Scale bars, 5 mm. Comparison of measured area of matrices between control and PXS-5505 treatment groups over time (n = 3 technical samples examined over three biologically independent samples). Data are mean ± s.d. c, Concentration of immature divalent DHLNL and mature trivalent Pyr collagen crosslinks determined by LC–MS from control and PXS-5505-treated organotypic matrices at day 12 (n = 3 technical samples examined over two biologically independent samples). Data are mean ± s.d. […] Data are presented as mean ± s.d. […] Comparison of number of CCs invaded per field of view (FOV) as determined by H&E and PanCK staining (nine images taken from three technical samples from each of three biologically independent contracted matrices), normalized to control. Data are mean ± s.d. Scale bars, 100 μm. […] Source data […]

[4] = system: KPC CCs; assay: Cancer cell invasion into CAF-remodeled 3D organotypic matrices; assay type: cell-based, mouse; details: PXS-5120 100 nM
Protocol: Fig. 3 PXS-5505 inhibition of CAF remodeling in vitro. a, Quantitative PCR with reverse transcription (qRT–PCR) showing in vitro comparison of KPC CAF relative expression of lysyl oxidase family members compared to KPC CCs from the same model (n = 3 biologically independent samples). Comparisons were determined by 2^–∆∆Ct approach. b, Representative images of 3D organotypic matrix contraction assay at days 2, 6 and 12 in the absence (gray) or presence (pink) of PXS-5505 (30 µM). Scale bars, 5 mm. Comparison of measured area of matrices between control and PXS-5505 treatment groups over time (n = 3 technical samples examined over three biologically independent samples). Data are mean ± s.d. c, Concentration of immature divalent DHLNL and mature trivalent Pyr collagen crosslinks determined by LC–MS from control and PXS-5505-treated organotypic matrices at day 12 (n = 3 technical samples examined over two biologically independent samples). Data are mean ± s.d. […] Data are presented as mean ± s.d. […] Comparison of number of CCs invaded per field of view (FOV) as determined by H&E and PanCK staining (nine images taken from three technical samples from each of three biologically independent contracted matrices), normalized to control. Data are mean ± s.d. Scale bars, 100 μm. […] Source data
Following remodeling, 4 × 10^4 KPC CCs were seeded on top of the remodeled matrix in DMEM supplemented with 10% FBS and 1% penicillin–streptomycin and allowed to grow to confluence for 4 days, after which matrices were transferred to an air–liquid interface and CCs allowed to invade into the organotypic matrices for 12 days (Extended Data Fig. 4f). PXS-5505 (30 μM) or PXS-5120 (100 nM) was added to medium at 48-h intervals for the duration. At the end point, matrices were fixed in 10% formalin and processed for histological analysis by H&E and panCK staining. The invasive index was measured in three representative areas per matrix and the number of invaded cells per mm^2 was calculated. No statistical methods were used to predetermine sample sizes but our sample sizes are similar to those reported in previous publications[36],[39].
Extended Data Fig. 4 PXS-5505 inhibits collagen cross-linking by PDAC CAFs in vitro resulting in decreased cancer cell invasion. a. Schematic of organotypic matrix remodeling assay whereby CAFs are embedded into a 3D collagen matrix and growth media supplemented with or without PXS-5505 to inhibit lysyl oxidase family activity b. Chemical structures of lysyl oxidase family catalyzed hydroxyallysine or allysine residues and the subsequent divalent and trivalent bonds that are formed that can be quantified by mass spectrometry. c. Representative images of 3D organotypic matrix contraction by human pancreatic cancer CAFs at days 2, 6 and 12 in the absence (gray) and presence (pink) of PXS-5505 (30 µM). Scale bars = 5 mm. […] Data presented as mean values +/− SD. d. […] Data presented as mean values +/− SD. Relative fold expression of LOXL family members compared to LOX were determined by 2^–∆∆Ct approach. f. […] Comparison of measured area of matrices between control, PXS-5120 and PXS-5505 treatment groups (n = 3) over time. i. […] Representative images of invasion of KPC cancer cells into a contracted organotypic matrix as determined by H&E staining. […]

[5] = listed as value 30 (unit not given)
[6] = listed as value 60 (unit not given)
[7] = listed as value 300 (unit not given)

Row | SMILES | processing as a substrate by SSAO/VAP-1 [1] | Turnover by SSAO as measured by H2O2 release, mean [1, 5] | Turnover by SSAO as measured by H2O2 release, mean [1, 6] | Turnover by SSAO as measured by H2O2 release, mean [1, 7] | processing as a substrate by DAO [2] | Turnover by DAO as measured by H2O2 release, mean [2, 5] | Turnover by DAO as measured by H2O2 release, mean [2, 6] | Turnover by DAO as measured by H2O2 release, mean [2, 7] | stiffening of 3D collagen matrices [3] | CC invasion [4]
1 | N#CCCN [BAPN, β-aminopropionitrile, reference compound] | oxidized | 1.3236 | 1.5791 | 2.4689 | oxidized | 3.75 | 4.64 | 5.888 |  | 
2 | Cc1c(-c2cccc(S(=O)(=O)N(C)C)c2)c2cc(C(=O)O)ccc2n1C/C(F)=C/CN [PXS-5120, reference compound] |  |  |  |  |  |  |  |  | does not significantly block stiffening | does not lead to decreased CC invasion
